Reference: US8557844B2, “Substrate reduction therapy” (The Chancellor, Masters and Scholars of the University of …, priority 2007, dated 2013)
Entries after “also recorded” stand apart in the source; their conditions may differ.

Columns and labels:
[1] = test system: GSL biosynthesis; conditions: cited from earlier work
[2] = test system: SLOS (DHCR7−/−) MEFs; assay type: cell-based, murine; conditions: 50 μM NB-DGJ, 5 days, medium with LPDS
[3] = test system: DHCR7−/− mouse embryonic fibroblasts; test: Nile red staining of ER neutral lipids in DHCR7−/− MEFs; assay type: cell-based; set-up: dose or concentration left out as unconfirmed; conditions: 5 days
Protocol: DHCR7−/− mouse embryonic fibroblasts were grown under the conditions indicated in FIG. 9 (FCS=foetal calf serum, LPDS=lipoprotein deficient serum) for 5 days prior to staining of neutral lipids with Nile red. Under wild-type conditions (growth in FCS) Nile red stains the endoplasmic reticulum (ER) as expected. Inducing DHCR7−/− cells into a Smith-Lemli-Opitz phenotype by growth in LPDS leads to a depletion in ER neutral lipids and an elevation in punctate staining indicative of a block in transport to the ER. […] N=2.

[4] = test system: NPC1 null (CT43) CHO cells; test: Total GSL level (HPLC) in NPC1 null CHO cells; assay type: cell-based; conditions: 50 μM NB-DGJ, 5 days, FIG. 3A
From the text: (§1) It has been shown that Niemann-Pick C1 cells (NPC1 null CHO cells) and normal cells treated with amphiphiles to induce an NPC1 phenotype, in addition to free cholesterol storage, have glycosphingolipid (GSL) storage (FIG. 3A) and abnormalities in endocytic transport (FIG. 3B) including defective early to late endosomal transport and late endosomal to Golgi transport (J Biol Chem 2004; 279(25):26167-75). NPC1 cells have a 2-fold increase in total GSLs (HPLC quantified) compared to controls (FIG. 3A). […] This correction in GSL levels is associated with a correction in endocytic transport defects (J Biol Chem 2004; 279(25):26167-75). Fluorescently labelled lactosylceramide (BODIPY-LacCer), a GSL normally transported through the endocytic system to the Golgi (FIG. 3Bi), is misdirected to the LE/Lys system in untreated NPC1 cells (FIG. 3Bii), indicative of GSL storage (J Biol Chem 2004; 279(25):26167-75; J Biol Chem 2003; 278(23):20961-70; Am J Hum Genet 2001; 68(6):1361-72).

[5] = test system: NPC1 null (CT43) CHO cells; test: BODIPY-LacCer pulse/chase endocytic transport in NPC1 null CHO cells; assay type: cell-based; conditions: 50 μM NB-DGJ, 5 days, 45 min pulse, 1 h chase, FIG. 3B
From the text: as §1

[6] = test system: NPC1 cells; conditions: depletion of stored GSLs with NB-DGJ; cited from earlier work
[7] = cited from earlier work
[8] = test system: total ganglioside and GM1 content in cerebrum-brainstem; conditions: cited from earlier work
[9] = cited from earlier work; remark: listed apart in the source

For CCCCN1C[C@H](O)[C@@H](O)[C@@H](O)[C@H]1CO [NB-DGJ, N-butyldeoxygalactonojirimycin], the “inhibition of GSL biosynthesis relative to NB-DNJ” value [1] is given as “comparably to NB-DNJ”, the “endogenous ganglioside GM1 / GSL trafficking from LE/Lys to Golgi” value [2] is given as “corrected altered endogenous ganglioside GM1 trafficking” and the “ER neutral lipid levels (Nile red)” value [3] is given as “restoration of normal levels of neutral lipids at the ER”. The GSL storage [4] was “reduction in GSL storage”, the BODIPY-LacCer endocytic transport [5] was “correction in abnormal BODIPY-LacCer endocytic transport; also recorded: correction in BODIPY-LacCer transport to the Golgi” and the HRP uptake [6] was “correction in HRP uptake”. For the same molecule, the neurological side effects ([7]; adult mice) was “not to cause neurological side effects”, the CNS penetration ([7]; mouse, in vivo) was “penetrate the CNS” and the “effects on behaviour or CNS development” value ([7]; mouse, in vivo) was “without significant effects on behaviour or CNS development”. For the same molecule, the “total ganglioside and GM1 content” value [8] was “marked reduction”, the tolerability ([9]; mouse models of GSL storage diseases) was “very well tolerated” and the “side effect activities relative to NB-DNJ” value ([9]; mouse, in vivo) was “lacks certain side effect activities associated with NB-DNJ”.
